Results published in the supplement of paper PMC13380429.

Tests used:
Conditions in all cases: 72 h
[1] = test system: Caco-2; assay: cell viability relative to DMSO; higher = less toxic
[2] = test system: Calu-3; assay: as above
[3] = test system: HepG2; assay: as above
[4] = test system: U2OS; assay: as above
[5] = test system: Caco-2; assay: relative viability EC50 (midpoint between 100% and the lowest measured viability); higher = less toxic
[6] = test system: Calu-3; assay: as above
[7] = test system: HepG2; assay: as above
[8] = test system: U2OS; assay: as above
[9] = test system: Caco-2; assay: drug sensitivity score (DSS) for viability; higher = more toxic; extreme values may be limits of the assay
[10] = test system: Calu-3; assay: as above
[11] = test system: HepG2; assay: as above
[12] = test system: U2OS; assay: as above
[13] = test system: Vero E6; assay: cell viability relative to DMSO; higher = less toxic
[14] = test system: Vero E6; assay: relative viability EC50 (midpoint between 100% and the lowest measured viability); higher = less toxic
[15] = test system: Vero E6; assay: drug sensitivity score (DSS) for viability; higher = more toxic; extreme values may be limits of the assay

SMILES | cell viability ([1]; 1 nM) [%] | cell viability ([1]; 10 nM) [%] | cell viability ([1]; 100 nM) [%] | cell viability ([1]; 1000 nM) [%] | cell viability ([1]; 10000 nM) [%] | cell viability ([2]; 1 nM) [%] | cell viability ([2]; 10 nM) [%] | cell viability ([2]; 100 nM) [%] | cell viability ([2]; 1000 nM) [%] | cell viability ([2]; 10000 nM) [%] | cell viability ([3]; 1 nM) [%] | cell viability ([3]; 10 nM) [%] | cell viability ([3]; 100 nM) [%] | cell viability ([3]; 1000 nM) [%] | cell viability ([3]; 10000 nM) [%] | cell viability ([4]; 1 nM) [%] | cell viability ([4]; 10 nM) [%] | cell viability ([4]; 100 nM) [%] | cell viability ([4]; 1000 nM) [%] | cell viability ([4]; 10000 nM) [%] | relative viability EC50 [5] [µM] | relative viability EC50 [6] [µM] | relative viability EC50 [7] [µM] | relative viability EC50 [8] [µM] | drug sensitivity score [9] | drug sensitivity score [10] | drug sensitivity score [11] | drug sensitivity score [12] | cell viability ([13]; 1 nM) [%] | cell viability ([13]; 10 nM) [%] | cell viability ([13]; 100 nM) [%] | cell viability ([13]; 1000 nM) [%] | cell viability ([13]; 10000 nM) [%] | relative viability EC50 [14] [µM] | drug sensitivity score [15]
COc1cccc(N2CCN(C3=Nc4c(F)cccc4[C@H](CC(=O)O)N3c3cc(C(F)(F)F)ccc3OC)CC2)c1 [letermovir] | 97.4 | 103 | 103 | 97.9 | 83.1 | 99.6 | 96 | 93.9 | 101 | 113 | 102 | 86.2 | 94.3 | 99.1 | 90.6 | 105 | 106 | 95.8 | 105 | 94.9 | > 10 | > 10 | > 10 | > 10 | 0.6 | 0 | 0 | 0 | – | – | – | – | – | – | –
O=C(O)CCN(O)C(=O)CCCCCCCCC1CC1 [TC-E-5002] | 89 | 97.7 | 91.3 | 92.1 | 91.9 | – | – | – | – | – | 96.1 | 103 | 101 | 99.3 | 104 | – | – | – | – | – | > 10 | – | > 10 | – | 0 | – | 0 | – | 97.2 | 99.2 | 97.7 | 93.2 | 94.9 | > 10 | 0
Cn1cc(-c2[nH]c3cc(NC(=O)[C@H](N)C4CCCCC4)cc4c3c2C=NNC4=O)cn1 | 106 | 98.2 | 97.8 | 104 | 25.9 | 109 | 98.7 | 114 | 66.7 | 51.2 | 97.3 | 103 | 91.5 | 50.9 | 30.7 | 99.9 | 98.4 | 96.3 | 8.5 | 4.2 | 3.48 | – | 0.493 | 0.324 | 3.7 | 6.5 | 10.3 | 17.1 | 95.4 | 99.4 | 98.3 | 95.3 | 84.5 | > 10 | 0.6
O=C(CCCCCCC(=O)Nc1cccnc1)NO [pyroxamide] | 102 | 92.9 | 94.3 | 91.6 | 47.6 | – | – | – | – | – | 106 | 99.6 | 98.7 | 76.8 | 7.6 | 102 | 97.8 | 101 | 90 | 12.6 | 1.93 | – | 1.54 | 2.22 | 4.2 | – | 8.7 | 6.5 | 99.6 | 103 | 96.3 | 99.9 | 46 | 3.14 | 2.9
NC(=O)c1ccc[n+]([C@@H]2O[C@H](COP(=O)([O-])OP(=O)(O)OC[C@H]3O[C@@H](n4cnc5c(N)ncnc54)[C@H](O)[C@@H]3O)[C@@H](O)[C@H]2O)c1 [nadide] | 92.3 | 89.7 | 99.9 | 90.5 | 113 | 102 | 103 | 94 | 96.1 | 106 | 110 | 113 | 92.1 | 99.2 | 99.8 | 101 | 95.9 | 97.9 | 101 | 111 | > 10 | > 10 | > 10 | > 10 | 0 | 0 | 0 | 0 | – | – | – | – | – | – | –
Clc1cccc(/C=N/N=C/c2cccc(Cl)c2)c1 [3,3'-dichlorobenzaldazine] | 103 | 99.1 | 105 | 94.7 | 103 | 107 | 93.9 | 96.7 | 97.5 | 96.1 | 94.8 | 95.6 | 101 | 100 | 84.5 | – | – | – | – | – | > 10 | > 10 | > 10 | – | 0 | 0 | 0.3 | – | 99.6 | 103 | 99.5 | 98.9 | 99.5 | > 10 | 0
NC(=O)c1cnc2[nH]ccc2c1N[C@@H]1[C@@H]2CC3C[C@H]1C[C@@](O)(C3)C2 | 101 | 101 | 90.5 | 104 | 113 | – | – | – | – | – | 113 | 112 | 107 | 109 | 47 | 96.4 | 97.1 | 96.5 | 93.1 | 67.2 | > 10 | – | 3.87 | – | 0 | – | 2.3 | 2.6 | 95.4 | 97.6 | 99.6 | 107 | 101 | > 10 | 0
C=C(CC)C(=O)c1ccc(OCC(=O)O)c(Cl)c1Cl [etacrynic-acid] | 93.4 | 100 | 96.2 | 84.9 | 97 | 90.3 | 94 | 97.5 | 90.5 | 106 | 99.4 | 110 | 105 | 100 | 86.2 | 98.7 | 101 | 97.8 | 102 | 103 | > 10 | > 10 | > 10 | > 10 | 0 | 0 | 0.1 | 0 | – | – | – | – | – | – | –
NCCC[C@H](N)C(=O)O [ornithine] | 97.2 | 94.7 | 101 | 101 | 100 | 103 | 95.6 | 102 | 102 | 104 | 97.3 | 112 | 94.7 | 97.2 | 91.8 | 100 | 93.5 | 99.1 | 96.8 | 104 | > 10 | > 10 | > 10 | > 10 | 0 | 0 | 0 | 0 | – | – | – | – | – | – | –
NS(=O)(=O)c1cc2c(cc1C(F)(F)F)NC(Cc1ccccc1)NS2(=O)=O (stereo not drawn) [bendroflumethiazide] | 96.6 | 101 | 96.9 | 99.1 | 108 | 109 | 110 | 107 | 98.2 | 95.1 | 106 | 87.1 | 98.7 | 93.3 | 98.6 | – | – | – | – | – | > 10 | > 10 | > 10 | – | 0 | 0 | 0 | – | 92.4 | 94.9 | 91.7 | 92.4 | 109 | > 10 | 0
Cn1cc(-c2ccc3ncc(Cc4ccc5ncccc5c4)n3n2)cn1 [NVP-BVU972] | 96.2 | 99.2 | 93.8 | 97.8 | 76.4 | 95.9 | 100 | 98.6 | 101 | 80.8 | 105 | 107 | 87.2 | 35.8 | 15.6 | – | – | – | – | – | > 10 | > 10 | 0.404 | – | 1.2 | 0.5 | 13.6 | – | 103 | 100 | 103 | 108 | 87.8 | > 10 | 0
CNc1ncnc2c1ncn2[C@@H]1O[C@H](CO)[C@@H](O)[C@H]1O [N6-methyladenosine] | 109 | 112 | 98.5 | 110 | 106 | 110 | 89.5 | 102 | 92 | 86 | 105 | 108 | 101 | 104 | 81.2 | – | – | – | – | – | > 10 | > 10 | > 10 | – | 0 | 0.7 | 0.3 | – | 99.8 | 103 | 102 | 98.7 | 102 | > 10 | 0
CC(C)[C@H]1C(=O)N[C@@H](CCCNC(=N)N)C(=O)NCC(=O)N[C@@H](CC(=O)O)C(=O)N[C@H](Cc2ccccc2)C(=O)N1C [cilengitide] | 98.6 | 95.4 | 96.5 | 80.5 | 41.1 | 97.6 | 94.3 | 87.1 | 89.4 | 70.5 | 103 | 103 | 92.6 | 116 | 103 | – | – | – | – | – | 1.39 | – | > 10 | – | 5.8 | 2.8 | 0 | – | 98.1 | 101 | 98.8 | 79.8 | 17 | 1.57 | 7.7
O=c1[nH]c2ccc(Cl)cc2c(N[C@@H]2CN3CCC2CC3)c1-c1nc2ccccc2[nH]1 [CHIR-124] | 103 | 96.9 | 111 | 66.9 | 44 | 92.3 | 91.8 | 105 | 97.3 | 59.9 | 103 | 99.3 | 101 | 36.7 | 3.1 | 94.1 | 96.9 | 95.3 | 4.5 | 0.8 | 0.869 | – | 0.777 | 0.307 | 7 | 2.4 | 12.7 | 18 | 105 | 103 | 105 | 77.6 | 6.6 | 1.59 | 8.6
C[C@@H]1COCCN1c1cc(C2([S@](C)(=N)=O)CC2)nc(-c2ccnc3[nH]ccc23)n1 [AZD6738] | 92.8 | 100 | 103 | 96.7 | 49.8 | 92.8 | 96 | 108 | 92.7 | 50.2 | 94.5 | 88.6 | 104 | 67.7 | 35.6 | 94.1 | 101 | 100 | 96.8 | 16.8 | 2.65 | – | 0.998 | 2.88 | 3.1 | 3.9 | 7.6 | 5.1 | 98.8 | 94.5 | 92.1 | 90.9 | 78.5 | > 10 | 1.3
O=C(/C=C\n1cnc(-c2cc(C(F)(F)F)cc(C(F)(F)F)c2)n1)NNc1cnccn1 [selinexor] | 97 | 87.9 | 89 | 50.4 | 44.2 | 104 | 93.4 | 66 | 57 | 56.4 | 108 | 99.2 | 49.6 | 31.9 | 24.5 | 97.1 | 89.9 | 75.8 | 12.7 | 7.6 | 0.248 | – | 0.0686 | 0.189 | 10.4 | 12.5 | 19.9 | 18.8 | 98.9 | 102 | 81.9 | 42.4 | 24.3 | 0.319 | 12.9
